The text below walks through data of patent EP0986401B1, “P-SELECTIN TRANSLOCATION TO VASCULAR EPITHELIAL LUMEN BY IONIZING RADIATION” (ARCH DEVELOPMENT CORPORATION, priority 1997, dated 1998).

In one test the test system is von Willebrand Factor. As to conditions: Vischer et al., 1995; cited from earlier work.
A further test has as its system ICAM-1. Briefly: X-ray induction of ICAM-1 expression with enzyme inhibitors. The test is classed as cell-based, human. As to conditions: inhibitor added prior to irradiation. From the text:
(§1) The initial step in discerning the potential role of various signal transduction pathways is to add enzyme inhibitors prior to x-radiation. Exocytosis of Weibel-Palade bodies is an active process requiring the translocation of cytoplasmic granules. Previous studies have shown that intracellular signal transduction required for Weibel Palade body translocation involves influx of calcium and protein kinase C activation (calcium, PKC). To determine whether these signaling pathways participate in radiation-mediated Weibel-Palade body exocytosis, the inventors added the intracellular calcium chelator BAPTA and the protein kinase C inhibitor, calphostin, to HUVEC cells prior to irradiation. Cells were then treated with 10 Gy and immunofluorescence was used to localize P-selectin. […] Conversely, the tyrosin kinase inhibitor, herbimycin A, had no effect on Weibel-Palade exocytosis. To determine whether calcium chelation and protein kinase inhibition prevent all molecular responses to ionizing radiation, the inventors' added BAPTA and calphostin prior to radiation-induction of ICAM-1 expression. BAPTA and calphostin had no effect on x-ray induction of ICAM-1. However, herbimycin A and the NFkB inhibitor ALLN attenuated x-ray induction of ICAM-1.

The test system of another test is P-selectin. As to the kind of experiment: P-selectin translocation (Weibel-Palade body exocytosis) in irradiated HUVEC with enzyme inhibitors, immunofluorescence. The class given is cell-based, human. As to conditions: inhibitor added prior to irradiation, 10 Gy.
Source text: as §1

Structures are written as SMILES.

As for `O=C(O)CN(CC(=O)O)c1ccccc1OCCOc1ccccc1N(CC(=O)O)CC(=O)O` [BAPTA], the “superoxide induced von Willebrand Factor exocytosis” value in the test with von Willebrand Factor was “inhibited”. Further, in the test with ICAM-1, the “x-ray induction of ICAM-1” value is on record as “no effect”. Moreover, in the test on P-selectin, the “P-selectin translocation to the cell membrane (Weibel-Palade exocytosis)” value is “attenuation”.
